# Results published in publication PMC12670405, “Second-Generation AURKA-Targeting PROTACs: Structural Optimization toward in Vivo Degradation in Neuroblastoma” (Journal of Medicinal Chemistry, 2025).
# Legend:
# Assay in all cases: LC-MS/MS proteome profiling
# Type in all cases: cell-based, Homo sapiens
# Conditions in all cases: SK5527 vs DMSO (24h)
# ZNF770 = tested on: ZNF770
# Protocol: (§1) Analysis of the mass spectrometry data was performed in DiaNN (version 1.9). Precursor false discovery rate was set at 1%. Spectra were searched against the Homo sapiens protein sequences in the Uniprot database (database release version of 2024_01), containing 20,597 sequences (www.uniprot.org) and the imbedded protein contaminant list. Enzyme specificity was set as C-terminal to arginine and lysine, also allowing cleavage at proline bonds with a maximum of 2 missed cleavages. Variable modifications were set to oxidation of methionine residues and acetylation of protein N-termini while fixed modification was set to carbamidomethylation of cystein residues. Matching between runs was enabled. Mainly default settings were used, except for the addition of a 400-900 m/z precursor mass range filter and MS1 and MS2 mass tolerance was set to 10 and 20 ppm respectively.
# (§2) Further data analysis of the results was performed with an in-house script in the R programming language.
# (§3) Protein expression matrices were prepared as follows: the DIA-NN main report output table was filtered at a precursor and protein library q-value cut-off of 1 % and only proteins identified by at least one proteotypic peptide were retained. After pivoting into a wide format, iBAQ intensity columns were then added to the matrix using the DIAgui’s R package get_IBAQ function. PG MaxLFQ intensities were log2 transformed and replicate samples were grouped. Proteins with less than 3 valid values in at least one group were removed and missing values were imputed from a normal distribution centered around the detection limit (package DEP) leading to a list of 7,759 quantified proteins in the experiment, used for further data analysis. […]
# (§4) Statistical significance for differential regulation was set to a false discovery rate (FDR) of < 0.05 and |log2FC| = 2.
# ETV3 = tested on: ETV3
# Protocol: as §1, §2, §3, §4
# ESCO2 = tested on: ESCO2
# Protocol: as §1, §2, §3, §4
# ZNF417 = tested on: ZNF417
# Protocol: as §1, §2, §3, §4
# MTERF3 = tested on: MTERF3
# Protocol: as §1, §2, §3, §4
# ZNF286A = tested on: ZNF286A
# Protocol: as §1, §2, §3, §4
# FAM204A = tested on: FAM204A
# Protocol: as §1, §2, §3, §4
# BAZ2A = tested on: BAZ2A
# Protocol: as §1, §2, §3, §4
smiles,measurement,setting,value
Cc1cc(Nc2ccc(F)c(CC3(C(=O)N4CCC(F)(CN5CCN(c6ccc(N7CCC(=O)NC7=O)cn6)CC5)CC4)CCN(Cc4cccc(Cl)c4F)CC3)n2)n[nH]1 [SK5527],logFC ZNF770,ZNF770,-4
same,logFC ETV3,ETV3,-2.36
same,logFC ESCO2,ESCO2,-2.1
same,logFC ZNF417,ZNF417,-2.12
same,logFC MTERF3,MTERF3,-2.09
same,logFC ZNF286A,ZNF286A,-2.95
same,logFC FAM204A,FAM204A,2.65
same,logFC BAZ2A,BAZ2A,2.83
